Test results reported in US12076394B2, “Cytosolic delivery of peptides using protein transduction domain mimics” (University of Massachusetts, priority 2020, dated 2024).
Where two headings read alike, the source gives them in different places. One block for each molecule: values may come before it. Where no end group is shown, it is not given here. FAM = Fluorescein Amidites label

Key:
[1] = test system: whole blood; test: Inflammatory cytokine panel (cytometric bead array) after co-delivery of SIINFEKL and CpG into whole blood; conditions: 24 hours after 60-minute treatment
Protocol: (§1) A multi-analyte inflammatory cytokine panel was used to understand the immune response when CpG was added to the complexes. GpC, a nonfunctional analogue of CpG, was included as a negative control to preclude the role of nonspecific TLR9 activation during incubation. At 24 hours, following the 60-minute treatment with the non-covalent polymer-[sequence]-CpG complexes, supernatants from whole blood were tested the inflammatory cytokines: IL-1β, IFN-α, IFN-γ, TNF-α, MCP-1, IL-6, IL-8, IL-10, IL-12p70, IL-17A, IL-18, IL-23, and IL-33.
(§2) Whole human blood was obtained from healthy volunteers under signed consent in Roche Vacutainers containing hirudin. In all cases, blood was used within 10 minutes of the tapping from the donor. The blood was distributed into Eppendorf tubes containing preassembled polymer preparations in RPMI 1640 with no supplements and incubated up to 1 hour at 37° C. on rotation (60 RPM). In general, 400 μL of blood was combined with 100 μL of polymer complex prepared in RPMI 1640 for a final volume of 500 μL.
(§3) After one hour of incubation with treatment as reported under cell preparation and culture, cells were pelleted at 400 g for 2 minutes and supernatant was removed. […] Cytokine production was detected using the human inflammation cytometric bead array Legendplex™ from BioLegend® (740118).

[2] = test system: whole blood
Protocol: as §1, §2, §3

[3] = test system: whole blood; test: Delivery of FAM labeled SIINFEKL into whole blood (time and concentration survey), flow cytometry; type: cell-based, human; conditions: molar ratio 1:10; 15, 30, 45 or 60 minutes; free peptide 60 minutes
Protocol: The specificity of the polymer-antigen complex uptake by monocytes was tested in whole blood. FAM (Fluorescein Amidites) labeled SIIFNEKL was delivered into whole blood using Me-Ph10-b-dG5 at a molar ratio of 1:10, for 15, 30, 45, or 60 minutes to investigate the kinetics of uptake. MFI and uptake in monocytes were not statistically different regardless of the incubation time. Additionally, complex uptake was compared with free SIINFEKL-FAM allowed to incubate with whole blood for 60 minutes.
FAM labeled SIINFEKL was delivered into whole blood using Me-Ph10-b-dG5 at a molar ratio of 1:10 at increasing peptide concentrations (0.25, 0.5, 1, and 2 μM).
After incubation, cells were pelleted at 200 g for 5 minutes and the supernatant was removed. Red blood cells were lysed in using BD Pharm lysis buffer and subsequently washed with 1% FBS in PBS twice before staining with antibodies. Unspecific binding was blocked for 10 minutes using human or mouse IgG respectively. Antibody surface staining was performed using Human CD14-APC, CD4O-PE, CD80-AF488, CD86-BV711, CD209-APC, HLA-DR-APC-Cy7, or mouse CD11c-AF488, CD86-AF647, HLA-DR, H-2K^b-PE as indicated by manufacturer (BD® or BioLegend®). […]

[4] = test system: bone marrow derived dendritic cells; test: Delivery into bone marrow derived dendritic cells, flow cytometry; type: cell-based, mouse; conditions: 1 μM antigen, free or with PTDM at 1:10, 4 hours
Protocol: To test SIINFEKL delivery and presentation for T cell activation, bone marrow derived dendritic cells were differentiated from B56 mouse bone marrow for 6 days in the presence of 20 ng/mL mouse GM-CSF. After 6 days, cells were harvested and treated with 1 μM fluorescently labeled SIINFEKL or OVA both free and in complex with PTDM molar ratio of 1:10 for 4 hours.
Immature dendritic cells were differentiated from murine bone marrow according to established protocols. (Dewitte, et al. J. Control. Release 2014, 195, 138-146.) RBCs were lysed using BioLegend® lysis buffer and cells were plated at a density of 2×10^5 cells/mL in complete RPMI (listed under cell lines) with the addition of 20 ng/mL recombinant mouse GM-CSF. Cells were cultured for 6 days with the addition of 10 mL fresh media and cytokines on day 3. Non-adherent and loosely adherent cells were harvested on day 6 and cells were pelleted, counted, and plated at a density of 2×10^6 cells/mL.
THP-1 monocytes, immature dendritic cells, and bone marrow derived dendritic cells were analyzed using a BD LSR Fortessa 20X flow cytometer with five lasers and 18 channels. […] Only cells negative for 7-AAD were assessed for either uptake or presentation of markers. Multi-color flow cytometric analysis spectral overlap was corrected by appropriate compensation and analyzed using FlowJo 10.2 (v3.05470) by Tree Star, Ashland, OR, USA.

inflammatory cytokine response, in words [1]: no increase in inflammatory response
Molecule: CC[C@H](C)[C@H](NC(=O)[C@@H](NC(=O)[C@@H](N)CO)[C@@H](C)CC)C(=O)N[C@@H](CC(N)=O)C(=O)N[C@@H](Cc1ccccc1)C(=O)N[C@@H](CCC(=O)O)C(=O)N[C@@H](CCCCN)C(=O)N[C@@H](CC(C)C)C(=O)O [SIINFEKL]

Molecule: Me-Ph10-b-dG5 [PTDM]
inflammatory cytokine response, in words [2]: did not induce the production of inflammatory cytokines

Molecule: SIINFEKL-FAM: FAM (Fluorescein Amidites) labeled SIINFEKL, free peptide (SIINFEKL-{FAM})
uptake of FAM labeled SIINFEKL by leukocytes, time survey [3]: not readily taken up

Molecule: OVA: ovalbumin protein, fluorescently labeled, free antigen
uptake of fluorescently labeled SIINFEKL or OVA [4]: significantly less uptake
